Paper PMC12429151 (International Journal of Molecular Sciences, 2025)

Assays:
[1] = test system: cancer and normal cells; assay: AV/PI flow cytometric analysis, positive control; assay type: cell-based, human; conditions: 24 h, AV/PI staining
Protocol: 5 × 10^5/well cells were plated into 6-well plates and incubated at 37 °C with 5% CO2 for 24 h to allow adhesion. […] The conditioned medium was collected into a 15 mL conical tube to retrieve the floating cells, while adherent cells were detached using trypsin. The floating cells in the collected medium were combined with the detached adherent cells and centrifuged for 2 min at 3000 rpm at 4 °C to collect the cells. The cell pellet was resuspended using 1x binding buffer containing AV and PI and incubated for 30 min at 37 °C. The cells were analyzed using a CytoFLEX Flow Cytometer (Beckman Coulter, Brea, CA, USA).

[2] = test system: Caco-2 cells; assay: MTT cell viability assay; conditions: Caco-2, 24 h treatment, absorbance 530 nm
Protocol: (§1) Then, the cells were further incubated for 4 h in the dark after adding MTT reagent. After incubation, formed formazan crystal was dissolved. The absorbance of the solubilized formazan was measured at 530 nm to determine cell viability of each AMP.
(§2) A549 human lung cancer cells, MDA-MB-231 triple-negative human breast cancer cells, HT-29 human colorectal adenocarcinoma, Panc-1 human pancreatic cancer cell line, and Caco2 human epithelial cell line were purchased from the Korean Cell Line Bank (Seoul, Republic of Korea). HaCaT human keratinocytes were gifted by Professor Su-Kyung Kim (Department of Pharmacology, Keimyung University School of Medicine). The cells were routinely grown in Dulbecco’s Modified Eagle Medium supplemented with 10% fetal bovine serum and 1% antimycotic/antibiotic solution at 37 °C in an atmosphere containing 5% CO2.
(§3) 1 × 10^4 cells were seeded into each well in a 96-well plate and attached for 24 h at 37 °C. […] The medium was removed, and the cells were incubated for 4 h in the dark after adding 50 μL of MTT reagent (Sigma-Aldrich; Merck KGaA, Darmstadt, Germany) in an each well.

[3] = test system: HaCaT cells; assay: MTT cell viability assay; conditions: 24 h treatment, absorbance 530 nm
Protocol: as §1, §2, §3

[4] = test system: human red blood cells (RBCs); assay: Hemolysis assay; assay type: cell-based; conditions: human RBCs in PBS, 37 °C, 1 h, absorbance 405 nm, relative to 1% Triton X-100
Protocol: This study was approved by the Institutional Review Board of Dongguk University (No.: DGU IRB 20200007-01). RBCs were prepared from human blood obtained from the Korean Red Cross by centrifugation at 2000 rpm for 30 min at 10 °C, followed by pellet collection. RBC pellets were washed by resuspending in phosphate-buffered saline (PBS) and centrifugation at 2000 rpm for 30 min at 10 °C thrice. Subsequently, RBCs were resuspended in PBS and 50 μL/well of RBC solution was loaded into a 96-well plate. […] Finally, the absorbance of the supernatant was measured at 405 nm using an Epoch ELISA Reader. […] All the absorbance values were normalized to those of PBS.

[5] = test system: A549-xenografted tumors; assay: A549 xenograft nude mouse model; conditions: cisplatin 5 mg/kg intravenous
Protocol: The body weights of mice and their tumor sizes were measured twice a week. Cisplatin was used as internal control.
The four-week-old female Balb/c nu/nu mice were bought from Orient Bio (Sungnam, Republic of Korea) and maintained for two weeks at 25 ± 2 °C in 50 ± 5% relative humidity with 12 h dark/light cycles. Then, 5 × 10^6 A546 human lung cancer cells mixed with Matrigel were injected subcutaneously into the right dorsal area. […] The body weights and tumor sizes of the mice were measured twice a week for five weeks. […] The tumor volume in each mouse was determined using the following formula: tumor volume (mm^3) = length × width^2 × 0.5.

CC[C@H](C)[C@H](NC(=O)CN)C(=O)NCC(=O)N[C@@H](C)C(=O)N[C@H](C(=O)N[C@@H](CC(C)C)C(=O)N[C@@H](CCCCN)C(=O)N[C@H](C(=O)N[C@@H](CC(C)C)C(=O)N[C@H](C(=O)N[C@H](C(=O)NCC(=O)N[C@@H](CC(C)C)C(=O)N1CCC[C@H]1C(=O)N[C@@H](C)C(=O)N[C@@H](CC(C)C)C(=O)N[C@H](C(=O)N[C@@H](CO)C(=O)N[C@@H](Cc1c[nH]c2ccccc12)C(=O)N[C@H](C(=O)N[C@@H](CCCCN)C(=O)N[C@@H](CCCNC(=N)N)C(=O)N[C@@H](CCCCN)C(=O)N[C@@H](CCCNC(=N)N)C(=O)N[C@@H](CCC(N)=O)C(=O)N[C@@H](CCC(N)=O)C(N)=O)[C@@H](C)CC)[C@@H](C)CC)[C@@H](C)O)[C@@H](C)O)C(C)C)C(C)C [melittin]
cytotoxicity in cancer and normal cells [1]: high cytotoxicity
concentration showing cytotoxicity [2]: ≥ 8000 ng/mL
concentration showing cytotoxicity [3]: ≥ 8000 ng/mL
concentration showing hemolytic activity [4]: exceeding 8 μg/mL

N.N.[Cl][Pt][Cl] [cisplatin]
body weight [5]: significant body weight loss
tumor growth ([5]; twice in the first week, start at about 400 mm^3): effectively suppressed
